Test results from US9956192B2, “Selective histone deactylase 6 inhibitors” (H. Lee Moffitt Cancer Center and Research Institute, Inc., priority 2012, dated 2018).
Each block holds one molecule with its values, some of them ahead of it.

Tests used:
[1] = molecular target: human, recombinant full-length HDAC1 (Homo sapiens (Human), UniProt Q13547); assay: HDAC inhibition assay, HDAC1; format: biochemical; details: HDAC1 and HDAC6, not selective
[2] = test system: acetyl-α-tubulin in B16 melanoma cells; assay: Tubulin acetylation Western blot assay; format: cell-based, murine; details: 24 h, low nanomolar treatment
Method: (§1) […]. B16 melanoma cells were plated at 10^5 cells/well in 12 well plates and allowed to adhere overnight. A 50 mM stock of compound was then added by serial dilutions in complete medium to the indicated concentrations. Cells were incubated for 24 h under humidified conditions (37° C., 5% CO2). Wells were then washed with cold PBS, and cells were lysed in a buffer containing 10 mM Tris-HCl pH 8.0, 10% SDS, […], 100 mM DTT, and 1× protease inhibitor (Roche). Cells were lysed for 30 min on ice and then sonicated for 8 min (8 cycles of 30 s on/30 s rest). Cells were then boiled for 10 min with 6× gel loading buffer and resolved on 4-15% gradient gels and subsequently transferred onto nitrocellulose membranes. Membranes were blocked with 5% milk in PBS-T and detection of specific antigens using antibodies against acetyl-H3 and H3 (Cell Signaling), and acetyl-α-tubulin and α-tubulin (Sigma). Bands were detected by scanning blots with LI-COR Odyssey imaging system using both 700 and 800 channels.

[3] = test system: acetyl-H3 in B16 melanoma cells; assay: Histone acetylation Western blot assay; format: cell-based, murine; details: 24 h
Method: as §1

[4] = test system: B16 murine melanoma cells; assay: B16 melanoma cell growth inhibition assay (MTS); format: cell-based
Method: The following day, media was changed to that containing various concentrations of HDACi or matched DMSO vehicle concentrations diluted in complete medium done in triplicate. […] Briefly, 20 μL of reagent were added per well and incubated at 37° C. for 3 hours.

[5] = test system: antigen-specific T-cell responses; assay: In vivo antigen-specific T-cell responses to vaccination; design: species or system mice; details: in vivo treatment
Description: Tubastatin A-treated macrophages are better activators of […] and restore the responsiveness of anergic T-cells in vitro. […] Mechanistically, Tubastatin-A disrupt […] pathway and tip the balance towards immunogenic rather than tolerogenic macrophages.

STAT3 in APCs = assay: STAT3 phosphorylation and recruitment to IL-10 gene promotor in APCs; format: cell-based
Description: FIG. 26 is a flow chart depicting the experimental design of the in vitro antigen-presenting studies.
Human MCL cells display an enhanced expression of HDAC6. Disruption of HDAC6 in malignant B-cells inhibits their proliferation and is associated with induction of apoptosis. Pharmacologic or genetic disruption of HDAC6 in MCL cells augment their antigen-presenting capabilities leading to better T-cell activation and restoration of function of anergic Tcells in vitro. […] Disclosed herein is the rationale to use HDAC6 specific inhibitor(s) alone or in combination with STAT3 inhibitors in MCL.

[6] = test system: JAK2/STAT3 in B16 murine melanoma cells; assay: JAK2/STAT3 phosphorylation in B16 melanoma in vivo

Sequence of human, recombinant full-length HDAC1 (Q13547 whole entry): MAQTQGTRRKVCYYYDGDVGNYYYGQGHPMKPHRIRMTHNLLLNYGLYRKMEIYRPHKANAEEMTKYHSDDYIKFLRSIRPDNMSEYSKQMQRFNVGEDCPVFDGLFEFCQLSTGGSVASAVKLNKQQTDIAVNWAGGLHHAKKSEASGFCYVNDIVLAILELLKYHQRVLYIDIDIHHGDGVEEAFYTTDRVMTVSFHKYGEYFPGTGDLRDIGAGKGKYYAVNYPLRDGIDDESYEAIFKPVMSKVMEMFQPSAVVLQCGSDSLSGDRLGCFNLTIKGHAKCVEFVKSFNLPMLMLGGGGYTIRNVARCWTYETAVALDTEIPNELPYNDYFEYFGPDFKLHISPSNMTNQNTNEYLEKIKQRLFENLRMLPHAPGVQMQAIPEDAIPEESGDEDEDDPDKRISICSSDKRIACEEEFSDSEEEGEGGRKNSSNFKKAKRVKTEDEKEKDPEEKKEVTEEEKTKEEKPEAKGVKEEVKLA

HDAC inhibitory activity (in words) [1]: submicromolar HDAC inhibitory activity
Structure (SMILES): COc1ccccc1NC(=O)NCc1ccc(C(=O)NO)cc1 [Compound 1]

Structure (SMILES): CCCCN(Cc1ccc(C(=O)NO)cc1)C(=O)Nc1ccccc1 [Compound 5g, 4-((1-butyl-3-phenylureido)methyl)-N-hydroxybenzamide]
acetyl α-tubulin levels [2]: dose-dependant increase of acetyl α-tubulin levels
histone H3 acetylation ([3]; 1 and 10 μM): observable increase in histone H3 acetylation
histone H3 acetylation ([3]; low nanomolar treatment): without a concamanent elevation of histone H3 acetylation

Structure (SMILES): O=C(NO)c1ccc(CN(CCc2ccccc2)C(=O)Nc2ccccc2)cc1 [Compound 5h, N-hydroxy-4-((1-phenethyl-3-phenylureido)methyl)benzamide]
growth inhibition of B16 melanoma cell line (in words) [4]: capable of inhibiting the growth of B16 melanoma cell line

Structure (SMILES): CN1CCc2c(c3ccccc3n2Cc2ccc(C(=O)NO)cc2)C1 [Tubastatin A]
antigen-specific T-cell responses to vaccination [5]: enhances antigen-specific T-cell responses to vaccination
STAT3 phosphorylation and recruitment to the IL-10 gene promotor (STAT3 in APCs): decreased STAT3 phosphorylation and recruitment
JAK2/STAT3 phosphorylation [6]: inhibits JAK2/STAT3 phosphorylation

Structure (SMILES): COc1ccccc1NC(=O)N(CCCO)Cc1ccc(C(=O)NO)cc1 [Compound 5b, N-hydroxy-4-((1-(3-hydroxypropyl)-3-(2-methoxyphenyl)ureido)methyl)-benzamide]
growth inhibition of B16 melanoma cell line (in words) [4]: performed very poorly in the cellular assay
